Test results published in paper PMC4438668, “Quantitative High-Throughput Identification of Drugs as Modulators of Human Constitutive Androstane Receptor” (Scientific Reports, 2015).
“Also recorded” adds a separate entry of the source. Like-named read-outs stand apart in the source and are kept apart here.

Columns and labels:
human CAR (hCAR) [1] = target: T1, human CAR (hCAR) (Homo sapiens, UniProt Q14994)
T1 sequence (Q14994 1-348 isoform Q14994-2): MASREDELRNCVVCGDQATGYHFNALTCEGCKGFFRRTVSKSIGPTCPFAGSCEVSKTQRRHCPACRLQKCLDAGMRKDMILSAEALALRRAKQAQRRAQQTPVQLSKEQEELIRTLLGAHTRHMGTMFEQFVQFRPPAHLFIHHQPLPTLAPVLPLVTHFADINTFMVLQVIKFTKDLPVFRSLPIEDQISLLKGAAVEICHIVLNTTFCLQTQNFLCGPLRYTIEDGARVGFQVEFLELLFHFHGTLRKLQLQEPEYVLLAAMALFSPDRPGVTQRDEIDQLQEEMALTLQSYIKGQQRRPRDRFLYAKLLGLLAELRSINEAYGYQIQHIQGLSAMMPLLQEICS
Description: (§2) The pEF6/V5-hCAR expression plasmid and the pGL4.17[luc2/Neo]-CYP2B6-2.2kb construct containing both the PBREM and XREM[40], were co-transfected in HepG2 cells using lipofectamine 2000 reagents (Life Technologies) following the manufacturer’s instruction. Dulbecco’s Modified Eagle Medium (DMEM) containing 10% FBS, 100 U/ml penicillin, 100 μg/ml streptomycin, G418 (0.6-1 mg/ml) and blasticidin (10 μg/ml) were used for the selection of colonies containing a mixed population of drug resistant cells. Subsequently, these cells were transferred to collagen-coated 48-well plates and continually cultured in the same media. Single colony containing both plasmids was selected and functionally verified.
(§3) The generated stable cell line, namely HepG2-CYP2B6-hCAR, was used to identify hCAR modulators in a qHTS platform. Assays were run in both agonist and antagonist modes. In brief, HepG2-CYP2B6-hCAR cells were dispensed at 2,500 cells/well in 1,536-well plates (Greiner Bio-One North America, Monroe, NC) using a Multidrop Combi (Thermo Fisher Scientific Inc., Waltham, MA). […] The assays were incubated at 37 °C for 24 h followed by the addition of 4 μl of the ONE-Glo luciferase reagent (Promega, Madision, WI). The assay plates were incubated at room temperature for 20 min and luminescence intensity was quantified using a ViewLux plate reader (PerkinElmer, Shelton, CT).
(§4) Concentration-response titration points for each compound were then fitted to the Hill equation, yielding half-maximal inhibition (IC50) or activation (EC50) and maximal response (efficacy) values. Compounds from the primary qHTS screen were classified into four major curve classes according to quality of curve fit, potency and efficacy. Class 1.1, 1.2, 2.1, and 2.2 curves were high-quality and thus high-confidence concentration-response curves (CRCs). […] All other curve classes (including those curves with single point activity) were deemed inconclusive. […] Follow-up studies were performed using a new aliquot of samples to confirm sample integrity and assay reproducibility.
(§5) All of these compounds were retested in both HepG2-CYP2B6-hCAR and cell viability assays.

CYP2B6 = CYP2B6 mRNA expression in HPH (real-time PCR); conditions: for Effect on CYP2B6 mRNA expression / Induction of hCAR target genes: HPH; for Effect on CYP2B6 mRNA expression: 24 h, vs vehicle control (0.1% DMSO); for Induction of hCAR target genes: target genes CYP2B6 and CYP3A4
Description: (§6) HPH were isolated from human liver specimens by a modification of the two-step collagenase digestion method as described previously[43] or obtained from Bioreclamation In Vitro Technologies (Baltimore, MD). Fresh HPH were seeded at 1.5 × 10^6, 7.5 × 10^5 or 4.7 × 10^4 cells/well in 6-well, 12-well, or 96-well collagen coated plates, respectively. Hepatocytes were cultured for 36 h at 37 °C before treatment with specified compounds for another 24 or 72 h for detection of mRNA or protein expression in the 6-well and 12-well plates.
(§7) Total RNA was isolated from treated hepatocytes using the TRIzol® reagent and reverse transcribed using a High Capacity cDNA Archive Kit (Applied Biosystems, Foster City, CA) following the manufacturers’ instructions. CYP2B6 and CYP3A4 mRNA expression were normalized against that of GAPDH. Real-time PCR assays were performed in 96-well optical plates on an ABI Prism 7000 Sequence Detection System with SYBR Green PCR Master Mix. […] Induction values were calculated using the equation: Fold = 2ΔΔCt, where ΔCt represents the differences in cycle threshold numbers between CYP2B6 or CYP3A4 and GAPDH, and ΔΔCt represents the relative change in these differences between control and treatment groups.

[2] = system: human primary hepatocytes; assay: MTT cytotoxicity assay in HPH; assay type: cell-based; conditions: 1 μM, 24 hours, donor HL-104
Description: Figure S1. […] Human primary
was carried out following the manufacturer’s instruction. Data represent the mean ± SD (n =3).
(1 picture or pasted object on this page, not shown here)

[3] = Cell viability assay (CellTiter-Glo ATP quantitation); assay type: cell-based, human; set-up: key to Cytotoxicity (activity call): Inactive: considered inactive if efficacy is less than 30%; conditions: human, HepG2-CYP2B6-hCAR cells, read-out: Cytotoxicity Potency
Description: (§1) The potential cytotoxicity of the NPC compounds in HepG2-CYP2B6-hCAR cells was measured using a luciferase-coupled ATP quantitation assay (CellTiter-Glo viability assay, Promega). The change of intracellular ATP content indicates the number of metabolically competent cells. The cells were seeded at 2,500 cells/5 μl in 1536-well plates and were exposed to each test compound at concentrations and treatment duration as previously mentioned. The assay plates were incubated for 24 h at 37 °C, followed by the addition of 4 μl/well of CellTiter-Glo reagent. After 30 min incubation at RT, the luminescence intensity of the plates was measured using a ViewLux plate reader.

HepG2-CYP2B6-hCAR cells = assay: as above; assay type: cell-based, human; set-up: key to Cytotoxicity (activity call): Inactive: considered inactive if efficacy is less than 30%; conditions: 24 h
Description: as §1

CYP3A4 = CYP3A4 mRNA expression in HPH (real-time PCR); assay type: cell-based, human; conditions: for Effect on CYP3A4 mRNA expression: HPH, 24 h, vs vehicle control (0.1% DMSO)
Description: as §6, §7

human CAR (hCAR) [4] = target: T1, human CAR (hCAR); assay: hCAR luciferase reporter qHTS, antagonist mode (HepG2-CYP2B6-hCAR cells, CITCO co-treatment); conditions: antagonist mode;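 also: stable HepG2 line carrying hCAR plus a CYP2B6 promoter (PBREM/XREM) luciferase reporter, 1536-well format, 24 h compound exposure at 37 °C, then luminescence read with ONE-Glo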
Description: as §2, §3, §4, §5

hPXR = target: T2, hPXR (Homo sapiens, UniProt O75469); assay: Transient hPXR luciferase assay in HepG2 cells (CYP2B6-2.2 kb reporter); assay type: cell-based
T2 construct: expressed in transfected cells; host or cells: HepG2 (transient transfection)
T2 sequence (O75469 1-434): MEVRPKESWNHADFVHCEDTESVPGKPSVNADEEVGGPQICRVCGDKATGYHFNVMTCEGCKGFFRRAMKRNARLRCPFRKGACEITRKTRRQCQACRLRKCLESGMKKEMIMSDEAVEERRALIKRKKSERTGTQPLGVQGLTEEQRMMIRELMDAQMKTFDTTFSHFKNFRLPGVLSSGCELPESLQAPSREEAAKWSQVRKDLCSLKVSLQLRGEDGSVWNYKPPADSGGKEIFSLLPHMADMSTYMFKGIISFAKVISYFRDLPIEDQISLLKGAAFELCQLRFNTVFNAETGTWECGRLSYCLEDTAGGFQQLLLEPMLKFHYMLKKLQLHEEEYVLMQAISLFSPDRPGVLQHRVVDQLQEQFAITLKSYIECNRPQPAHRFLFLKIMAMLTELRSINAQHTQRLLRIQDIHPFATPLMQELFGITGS
Description: HepG2 cells cultured in a 24-well plate were co-transfected with the CYP2B6-2.2 kb reporter and hPXR expression vectors using a Lipofectamine® 2000 Transfection Kit (Life Technologies) following the manufacturer’s instruction. […] Cell lysates were assayed for firefly luciferase activities normalized against the activities of co-transfected Renilla luciferase using a Dual-Luciferase Kit (Promega). Data were represented as mean±SD of three individual transfections.

[5] = system: CYP2B6 and CYP3A4 proteins; assay: Immunoblotting of CYP2B6 and CYP3A4 proteins in HPH; assay type: cell-based, human; conditions: immunoblotting (Fig. 3C)
Description: Homogenate proteins (30 μg) from treated HPH were resolved on an SDS polyacrylamide gel and electrophoretically transferred onto Immobilon-P polyvinylidene difluoride membranes and blocked using 5% blotting-grade blocker (nonfat dry milk, Bio-RAD). Subsequently, membranes were incubated with specific antibodies against CYP2B6 (1:200), CYP3A4 (1:5000), and β-actin (1:50,000) diluted in 1% blotting-grade blocker. β-Actin was used to normalize protein loadings. Membranes were washed using 1x Tris buffered saline–Tween 20 (Bio-RAD) and incubated with horseradish peroxidase goat anti-rabbit IgG antibody diluted at 1:5000, and developed using ECL Western blotting detection reagent (Thermo-Scientific Inc).

CAR, CYP2B6, or CYP3A4 = conditions: previously known; reference not given; cited from earlier work
human CAR (hCAR) [6] = target: T1, human CAR (hCAR); assay: hCAR luciferase reporter qHTS, agonist mode (HepG2-CYP2B6-hCAR cells, PK11195 co-treatment); conditions: agonist mode; for Follow-up Confirmation Efficacy: relative to CITCO (100%); for Primary Screen Efficacy: relative to CITCO Emax (100%)
Description: (§8) The generated stable cell line, namely HepG2-CYP2B6-hCAR, was used to identify hCAR modulators in a qHTS platform. Assays were run in both agonist and antagonist modes. In brief, HepG2-CYP2B6-hCAR cells were dispensed at 2,500 cells/well in 1,536-well plates (Greiner Bio-One North America, Monroe, NC) using a Multidrop Combi (Thermo Fisher Scientific Inc., Waltham, MA). […] Each NPC compound was tested at 8 concentrations ranging from 0.6 nM to 38.3 μM. The assays were incubated at 37 °C for 24 h followed by the addition of 4 μl of the ONE-Glo luciferase reagent (Promega, Madision, WI). The assay plates were incubated at room temperature for 20 min and luminescence intensity was quantified using a ViewLux plate reader (PerkinElmer, Shelton, CT).
as §4
(§9) These compounds were prepared in 1536-well compound plates at 11-point 3-fold dilution titrations in DMSO, with final concentrations ranging from 0.6 nM to 38.3 μM. All of these compounds were retested in both HepG2-CYP2B6-hCAR and cell viability assays.

human CAR (hCAR) [7] = target: T1, human CAR (hCAR); remark: listed apart in the source
Description: as §8, §4, §9

EYFP-hCAR = target: T3, EYFP-hCAR (Homo sapiens, UniProt Q14994); assay: Nuclear translocation of Ad/EYFP-hCAR in human primary hepatocytes; assay type: cell-based; conditions: HPH
T3 construct: expressed in transfected cells; host or cells: human primary hepatocytes infected with Ad/EYFP-hCAR
T3 sequence (Q14994 1-348 isoform Q14994-2): T1 sequence (Q14994 1-348 isoform Q14994-2)
Description: A recombinant adenovirus expressing enhanced yellow fluorescent protein-tagged hCAR (Ad/EYFP-hCAR) was generated as described previously. Hepatocytes cultured in 96-well collagen-coated plates in serum free Williams’ E medium were infected with Ad/EFYP-hCAR (1 μl/well) for 12 h before treatment with the vehicle control, DMSO (0.1%), PB (1 mM), and selected compounds for another 8 h. Subcellular localization of hCAR was visualized using a Nikon (Tokyo, Japan) C1-LU3 instrument based on an inverted Nikon Eclipse TE2000 microscope.

[8] = HPH donor HL-104, 24 h, daunorubicin 1, 2.5 and 5 µM, bortezomib 0.1, 0.5, and 1 µM
[9] = Follow-up Confirmation Potency (IC50), follow-up cherry-pick, 11-point titration
[10] = Primary Screen Potency (IC50), primary qHTS, 0.1 μM CITCO, 24 h
[11] = Follow-up Confirmation Potency (EC50), follow-up cherry-pick, 11-point titration
[12] = Primary Screen Potency (EC50), primary qHTS, 2.5 μM PK11195, 24 h

SMILES: CCCCc1ccc(O)cc1 [4-butylphenol]
- Identified as hCAR antagonist/deactivator in the qHTS (human CAR (hCAR) [1]): recognized in the current study

SMILES: CC(C)C[C@H](NC(=O)[C@H](Cc1ccccc1)NC(=O)c1cnccn1)B(O)O [Bortezomib]
- Concentration-dependent effect on CYP2B6 mRNA expression (CYP2B6; [8]): marked and concentration-dependent repression
- Effect on CYP2B6 mRNA expression (CYP2B6): most potent repressors of CYP2B6
- Cytotoxicity in HPH (MTT) [2]: not associated with significant cytotoxicity
- IC50 at 24 h [3]: 1.25 µM
- Cytotoxicity Efficacy (HepG2-CYP2B6-hCAR cells): -57%
- Concentration-dependent effect on CYP3A4 mRNA expression (CYP3A4; [8]): marked and concentration-dependent repression
- IC50 (human CAR (hCAR) [4]; [9]): 0.03 µM
- IC50 (human CAR (hCAR) [4]; [10]): 0.02 µM
- Primary Screen Efficacy (human CAR (hCAR) [4]; primary qHTS, relative to PK11195 (100%)): -103%

SMILES: COc1cccc2c1C(=O)c1c(O)c3c(c(O)c1C2=O)C[C@@](O)(C(C)=O)C[C@@H]3O[C@H]1C[C@H](N)[C@H](O)[C@H](C)O1 [Daunorubicin]
- Effect on CYP2B6 mRNA expression (CYP2B6): most potent repressors of CYP2B6
- IC50 at 24 h [3]: 15.9 µM
- Cytotoxicity Efficacy (HepG2-CYP2B6-hCAR cells): -43%
- Effect on basal and RIF-induced PXR activity (hPXR; HepG2, 24 h, in the presence or absence of rifampicin (10 μM)): only repressed RIF-induced PXR activity

SMILES: O=c1cc(-c2ccccc2)oc2ccccc12 [Flavone]
- Induction of CYP2B6 and CYP3A4 at the protein level [5]: preferential induction of CYP2B6 over CYP3A4
- Effect on CYP2B6 mRNA expression (CYP2B6): significantly induced; also recorded: markedly induced
- Known modulator of CAR, CYP2B6, or CYP3A4? (CAR, CYP2B6, or CYP3A4): Dietary flavonoids activate CAR
- EC50 (human CAR (hCAR) [6]; [11]): 32.4 µM
- EC50 (human CAR (hCAR) [6]; [12]): 34 µM
- Follow-up Confirmation Efficacy (human CAR (hCAR) [6]; follow-up cherry-pick): 200%
- Primary Screen Efficacy (human CAR (hCAR) [6]; primary qHTS): 184%
- hPXR activation (hPXR; data not shown): moderately activated hPXR
- Effect on CYP3A4 mRNA expression (CYP3A4): marginal effect; also recorded: only marginally increased

SMILES: CC(C)=CCOc1c2occc2cc2ccc(=O)oc12 [Imperatorin]
- Induction of CYP2B6 and CYP3A4 at the protein level [5]: preferential induction of CYP2B6 over CYP3A4
- Known modulator of CAR, CYP2B6, or CYP3A4? (CAR, CYP2B6, or CYP3A4): Cyp2b10 inducer
- EC50 (human CAR (hCAR) [6]; [11]): 14 µM
- EC50 (human CAR (hCAR) [6]; [12]): 10.7 µM
- Follow-up Confirmation Efficacy (human CAR (hCAR) [7]): 238%
- Primary Screen Efficacy (human CAR (hCAR) [7]): 146%
- hPXR activation (hPXR): moderately activated hPXR
- Effect on CYP3A4 mRNA expression (CYP3A4): marginal effect; also recorded: only marginally increased

SMILES: C[C@@H]1O[C@@H](O[C@H]2C[C@@H](O)[C@]3(CO)[C@H]4[C@H](O)C[C@]5(C)[C@@H](C6=CC(=O)OC6)CC[C@]5(O)[C@@H]4CC[C@]3(O)C2)[C@H](O)[C@H](O)[C@H]1O [Ouabain]
- Follow-up Confirmation Efficacy (human CAR (hCAR) [1]): 0.47 (-99%)
- Primary Screen Efficacy (human CAR (hCAR) [1]): 0.30 (-104%)
- Cytotoxicity (activity call) (HepG2-CYP2B6-hCAR cells): Inactive
- IC50 (human CAR (hCAR) [4]; [9]): 0.47 µM
- IC50 (human CAR (hCAR) [4]; [10]): 0.3 µM

SMILES: NNCCc1ccccc1 [Phenelzine]
- Induction of hCAR target genes (CYP2B6): negligible induction
- Induction of hCAR target genes (CYP2B6; listed as phenelzine): nor induced the expression of its target genes
- Known modulator of CAR, CYP2B6, or CYP3A4? (CAR, CYP2B6, or CYP3A4): CYP3A4 weak inhibitor
- hCAR nuclear translocation (in words) (EYFP-hCAR): didn’t translocate hCAR
- hCAR nuclear translocation (in words) (EYFP-hCAR; listed as phenelzine): neither translocated hCAR
- EC50 (human CAR (hCAR) [6]; [11]): 15.9 µM
- EC50 (human CAR (hCAR) [6]; [12]): 15.1 µM
- Follow-up Confirmation Efficacy (human CAR (hCAR) [6]; follow-up cherry-pick): 70%
- Primary Screen Efficacy (human CAR (hCAR) [6]; primary qHTS): 145%
